Among the test systems are 786-0 renal; COLO 205 colon; HCC-2998 colon; PC-3 prostate; TK-10 renal; CAKI-1 renal; DLD-1 colon; DMS 273 small cell lung; KM20L2 colon; M19-MEL melanoma; SNB-78 CNS; SR leukemia; HL-60(TB) leukemia.
Common to all, as to experiment: NCI anticancer screen, dose series, 48 h

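How tested: cells in 96-well plates exposed to compound for 48 hours at five concentrations. GI50 marks 50% less growth. TGI: concentration producing complete growth inhibition.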

Turning to `C[P+](c1ccccc1)(c1ccc(Cl)cc1)c1ccc(Cl)cc1`, the TGI in the assay on 786-0 renal is greater than 100 µM; with COLO 205 colon it was 22 µM; with HCC-2998 colon, 24 µM; with PC-3 prostate it was 70.6 µM; in the assay on TK-10 renal it was 36.9 µM.

As for `C[n+]1c2ccccc2c(CNCC(=O)O)c2ccccc21`, the TGI was 2.58 µM with 786-0 renal; 1.84 µM in the assay with CAKI-1 renal; 2.9 µM in the assay on COLO 205 colon; 2 µM with DLD-1 colon; 2.74 µM in the assay with DMS 273 small cell lung; 18.1 µM in the assay on HCC-2998 colon. In addition, the TGI in the assay with KM20L2 colon turned out to be 2.44 µM; with M19-MEL melanoma it was 16.5 µM; in the assay on SNB-78 CNS, 44.3 µM; in the assay on TK-10 renal, 3.06 µM.

Consider `c1ccc(-c2n(Cc3ccc4ccccc4c3)c3ccccc3[n+]2Cc2ccc3ccccc3c2)cc1`, for which, in the assay with PC-3 prostate, the GI50 is 0.27 µM and the TGI is 1.13 µM. In the assay on SR leukemia, the GI50 is 0.343 µM and the TGI was found to be 1.64 µM.

For `O=C(Nc1ccc(Cl)cc1)c1cc([N+](=O)[O-])ccc1O`, the TGI is greater than 46.8 µM with 786-0 renal; 24.4 µM in the assay with CAKI-1 renal; 12.6 µM in the assay with COLO 205 colon; greater than 100 µM in the assay on DLD-1 colon; 20 µM with DMS 273 small cell lung; 8.98 µM in the assay on HCC-2998 colon. The TGI is 8.62 µM with HL-60(TB) leukemia; greater than 50.9 µM in the assay with KM20L2 colon; 23.5 µM in the assay on M19-MEL melanoma; 31.6 µM in the assay with SR leukemia; greater than 60.6 µM in the assay on TK-10 renal.

On to `C=CCNC1=C2C[C@@H](C)C[C@H](OC)[C@H](O)[C@@H](C)/C=C(\C)[C@H](OC(N)=O)[C@@H](OC)/C=C\C=C(/C)C(=O)NC(=CC1=O)C2=O`, for which the TGI in the assay on 786-0 renal was found to be 58.3 µM; in the assay on CAKI-1 renal it was 38 µM; with COLO 205 colon it was 1.67 µM; in the assay on HCC-2998 colon it was 2.82 µM; in the assay on HL-60(TB) leukemia, 1.06 µM; in the assay on PC-3 prostate it was 40.7 µM. Moreover, the TGI was found to be 10.3 µM in the assay on SR leukemia and 48.3 µM with TK-10 renal.

Turning to `NC(CCP(=O)(O)O)C(=O)O` (configuration not stated), the TGI in the assay with 786-0 renal, with CAKI-1 renal, with HL-60(TB) leukemia, in the assay on PC-3 prostate, in the assay with SR leukemia and in the assay with TK-10 renal was greater than 100 µM each time.

Regarding `O=C1c2cccc(O)c2C(=O)c2c(O)cccc21`, the TGI in the assay on 786-0 renal, in the assay on CAKI-1 renal, in the assay on COLO 205 colon, in the assay on DLD-1 colon, with DMS 273 small cell lung and in the assay on HCC-2998 colon was greater than 100 µM throughout. For the same compound, the TGI is greater than 100 µM in the assay on KM20L2 colon; 24.3 µM in the assay with M19-MEL melanoma; greater than 100 µM in the assay on SNB-78 CNS; greater than 100 µM in the assay on SR leukemia; greater than 100 µM in the assay on TK-10 renal.

In the case of `CCCCSCC(NC(=O)/C=C/c1c(C)[nH]c(=O)[nH]c1=O)C(=O)OC` (configuration not stated), the TGI in the assay with CAKI-1 renal was found to be 155 µM; in the assay with COLO 205 colon, 112 µM; in the assay on DLD-1 colon, 275 µM; in the assay with DMS 273 small cell lung, 264 µM; in the assay with HCC-2998 colon, 132 µM; in the assay with HL-60(TB) leukemia, 206 µM. Moreover, the TGI in the assay with KM20L2 colon is 355 µM; in the assay on M19-MEL melanoma it was 191 µM; in the assay with SNB-78 CNS, 303 µM.

`N=C(N)c1ccc(-c2ccc(-c3ccc4ccccc4c3)s2)s1`: the GI50 is 3.11 µM in the assay on CAKI-1 renal; 1.63 µM in the assay with COLO 205 colon; 2.02 µM with HCC-2998 colon; 1.81 µM in the assay on HL-60(TB) leukemia; 2.19 µM in the assay with PC-3 prostate; 2.23 µM with TK-10 renal. The TGI in the assay on CAKI-1 renal was determined as 11.6 µM; in the assay with COLO 205 colon, 3.17 µM; in the assay on HCC-2998 colon, 4.48 µM; in the assay with HL-60(TB) leukemia it was 5.11 µM; in the assay with PC-3 prostate it was 4.87 µM; in the assay with TK-10 renal, 4.77 µM.

Take `CS(=O)(=O)c1ccc2nc(-c3ccc(O)cc3)sc2c1`: the TGI is 31.4 µM in the assay with CAKI-1 renal; greater than 100 µM in the assay on COLO 205 colon; 63.9 µM in the assay with HL-60(TB) leukemia; 32.1 µM in the assay on PC-3 prostate; 39.8 µM in the assay with SR leukemia; 29.8 µM with TK-10 renal.

On to `CN(C)CCOc1cc2c(c3ccccc13)-c1ccccc1C2O` (configuration not stated), for which the TGI was found to be 26.7 µM in the assay with CAKI-1 renal; 27.4 µM with COLO 205 colon; 30.2 µM in the assay on DLD-1 colon; 29 µM in the assay with DMS 273 small cell lung; 28.2 µM with HCC-2998 colon; 26.6 µM in the assay with HL-60(TB) leukemia. The TGI with KM20L2 colon is 29.9 µM; in the assay with M19-MEL melanoma it was 30.9 µM; in the assay with SNB-78 CNS it was 31.6 µM.

On to `CC1C[C@]2(C[C@@H](C)C(=O)O2)OC2CC3(C)C4CCC5C(C)(C)OC(=O)CC[C@@]56C[C@@]46CC[C@]3(C)C12` (some centres not stated), for which the TGI with CAKI-1 renal, with COLO 205 colon, with DLD-1 colon, with DMS 273 small cell lung, with HCC-2998 colon and in the assay with HL-60(TB) leukemia was greater than 100 µM throughout. The TGI in the assay with SNB-78 CNS, with SR leukemia and in the assay with TK-10 renal was greater than 100 µM each time.

With `C=CCOCCC(CC=C)C(=O)CC(=O)OC` (configuration not stated), the TGI with DLD-1 colon, in the assay on DMS 273 small cell lung, in the assay on HCC-2998 colon, in the assay on HL-60(TB) leukemia, in the assay with KM20L2 colon and in the assay on SR leukemia was greater than 100 µM in each case. The compound also gave a TGI with TK-10 renal greater than 100 µM.

As for `NC(=O)c1ccc([N+](=O)[O-])cc1`, the TGI in the assay on 786-0 renal, in the assay on CAKI-1 renal, with COLO 205 colon, in the assay with DLD-1 colon, with DMS 273 small cell lung and in the assay on HCC-2998 colon was greater than 100 µM throughout. Also, the TGI with KM20L2 colon, in the assay on M19-MEL melanoma, in the assay on SNB-78 CNS and in the assay on TK-10 renal was greater than 100 µM each time.

Source of the values: PubChem BioAssay (NCI).
